Reference: patent US4401660A, “Ester derivatives of 5-O-mycaminosyl tylonolide and method of using same” (Eli Lilly and Company, priority 1981, dated 1983)
Like-named read-outs stand apart in the source and are kept apart here.

Legend:
[1] = test system: Streptococcus pyogenes C203; experiment: ED50 in mice with experimental infections (Table IV); type: in vivo; settings: Streptococcus pyogenes, doses given 1 and 4 hours postinfection
Experimental: The OMT ester derivatives of this invention have shown in vivo antimicrobial activity against experimental bacterial infections caused by gram-positive bacteria. When two doses of test compound were administered to mice with experimental infections, the activity observed was measured as an ED50 value [effective dose in mg/kg to protect 50% of the test animals: see Warren Wick, et al., J. Bacteriol. 81, 233-235 (1961)].
^a mg/kg × 2; doses given 1 and 4 hours postinfection

[2] = test system: Staphylococcus aureus S13E; experiment: MIC, standard agar-dilution assay (Table II); type: cell-based; parameters: unit not given here
Experimental: (§1) The MIC's in Table II were determined by standard agar-dilution assays. The MIC's in Table III were obtained using a conventional broth-dilution microtiter test.

[3] = test system: Streptococcus pneumoniae Park I; experiment: MIC, standard agar-dilution assay (Table II); type: cell-based; parameters: unit not given here
Experimental: as §1

[4] = test system: Staphylococcus epidermidis EPI2; experiment: MIC, standard agar-dilution assay (Table II); type: cell-based; parameters: unit not given here
Experimental: as §1

[5] = test system: Haemophilus influenzae R252; experiment: MIC, standard agar-dilution assay (Table II); type: cell-based; parameters: unit not given here; settings: Haemophilus influenzae R252, ampicillin-resistant strain
Experimental: as §1

[6] = test system: Streptococcus Group D 9960; experiment: MIC, standard agar-dilution assay (Table II); type: cell-based; parameters: unit not given here
Experimental: as §1

[7] = test system: Staphylococcus aureus V41; experiment: MIC, standard agar-dilution assay (Table II); type: cell-based; parameters: unit not given here; settings: Staphylococcus aureus V41, penicillin-resistant strain
Experimental: as §1

[8] = test system: Staphylococcus epidermidis EPI1; experiment: MIC, standard agar-dilution assay (Table II); type: cell-based; parameters: unit not given here
Experimental: as §1

[9] = test system: Streptococcus Group D X66; experiment: MIC, standard agar-dilution assay (Table II); type: cell-based; parameters: unit not given here
Experimental: as §1

[10] = test system: Staphylococcus aureus X400; experiment: MIC, standard agar-dilution assay (Table II); type: cell-based; parameters: unit not given here; settings: Staphylococcus aureus X400, methicillin-resistant strain
Experimental: as §1

[11] = test system: Streptococcus pyogenes C203; experiment: MIC, standard agar-dilution assay (Table II); type: cell-based; parameters: unit not given here
Experimental: as §1

[12] = test system: Haemophilus influenzae Holt; experiment: MIC, standard agar-dilution assay (Table II); type: cell-based; parameters: unit not given here; settings: ampicillin-sensitive strain
Experimental: as §1

[13] = test system: Pasteurella multocida; experiment: Treatment of Pasteurella infections in chicks (Table V); type: in vivo, one-day-old chicks; settings: Pasteurella multocida, sc, 4 h; 30 mg/kg by subcutaneous injection one and four hours post challenge; read-out: Deaths in Treated Chicks/Number Treated (converted)
In short: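 Dosing was 30 mg/kg by subcutaneous injection, one and four hours after challenge. Day-old chicks received 0.1 ml of a 10^-3 dilution of a 20-hour tryptose broth culture of avian P. multocida subcutaneously. Nonmedicated infected chicks served as controls, ten per group.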

[14] = test system: Pasteurella haemolytica 22C; experiment: MIC, broth-dilution microtiter test (Table III); type: cell-based; parameters: unit not given here
Experimental: as §1

[15] = test system: Mycoplasma synoviae; experiment: MIC, broth-dilution microtiter test (Table III); type: cell-based; parameters: unit not given here
Experimental: as §1

[16] = test system: Pasteurella haemolytica 41D; experiment: MIC, broth-dilution microtiter test (Table III); type: cell-based; parameters: unit not given here
Experimental: as §1

[17] = test system: Pasteurella multocida 60A; experiment: MIC, broth-dilution microtiter test (Table III); type: cell-based; parameters: unit not given here; settings: avian isolate
Experimental: as §1

[18] = test system: Mycoplasma gallisepticum; experiment: MIC, broth-dilution microtiter test (Table III); type: cell-based; parameters: unit not given here
Experimental: as §1

[19] = test system: Pasteurella multocida 68C; experiment: MIC, broth-dilution microtiter test (Table III); type: cell-based; parameters: unit not given here
Experimental: as §1

[20] = test system: Mycoplasma hyorhinis; experiment: MIC, broth-dilution microtiter test (Table III); type: cell-based; parameters: unit not given here
Experimental: as §1

[21] = test system: Pasteurella multocida 17E; experiment: MIC, broth-dilution microtiter test (Table III); type: cell-based; parameters: unit not given here; settings: bovine isolate
Experimental: as §1

[22] = test system: Streptococcus sp. 80; experiment: MIC, broth-dilution microtiter test (Table III); type: cell-based; parameters: unit not given here
Experimental: as §1

[23] = test system: Pasteurella haemolytica 23C; experiment: MIC, broth-dilution microtiter test (Table III); type: cell-based; parameters: unit not given here
Experimental: as §1

[24] = test system: Pasteurella multocida 22A; experiment: MIC, broth-dilution microtiter test (Table III); type: cell-based; parameters: unit not given here
Experimental: as §1

[25] = test system: Staphylococcus aureus; experiment: MIC, broth-dilution microtiter test (Table III); type: cell-based; parameters: unit not given here
Experimental: as §1

[26] = test system: Staphylococcus aureus X1.1; experiment: MIC, standard agar-dilution assay (Table II); type: cell-based; parameters: unit not given here
Experimental: as §1

[27] = test system: Pasteurella multocida 40G; experiment: MIC, broth-dilution microtiter test (Table III); type: cell-based; parameters: unit not given here
Experimental: as §1

[28] = C203, oral, read-out: ED50, Oral
[29] = C203, sc, subcutaneous, read-out: ED50, Subcutaneous

Row | SMILES | minimal inhibitory concentration (MIC) [2] | minimal inhibitory concentration (MIC) [3] | minimal inhibitory concentration (MIC) [4] | minimal inhibitory concentration (MIC) [5] | minimal inhibitory concentration (MIC) [6] | minimal inhibitory concentration (MIC) [7] | minimal inhibitory concentration (MIC) [8] | minimal inhibitory concentration (MIC) [9] | minimal inhibitory concentration (MIC) [10] | minimal inhibitory concentration (MIC) [11] | minimal inhibitory concentration (MIC) [12] | mortality at 30 mg/kg [13] [%] | minimal inhibitory concentration (MIC) [14] | minimal inhibitory concentration (MIC) [15] | minimal inhibitory concentration (MIC) [17] | minimal inhibitory concentration (MIC) [18] | minimal inhibitory concentration (MIC) [20] | minimal inhibitory concentration (MIC) [21] | minimal inhibitory concentration (MIC) [22] | minimal inhibitory concentration (MIC) [25] | other results
1 | CCC1OC(=O)CC(O)C(C)C(OC2OC(C)C(OC(C)=O)C(N(C)C)C2OC(C)=O)C(CC=O)CC(C)C(=O)C=CC(C)=CC1COC(=O)c1ccccc1 (stereo not drawn) [Compound 6, 23-O-Benzoyl-2',4'-Di-O-acetyl-OMT] | 0.25 | 0.06 | 0.5 | 2 | 0.25 | 0.25 | 0.25 | 0.25 | 0.25 | 0.125 | 2 | 80 | 6.25 | 0.39 | 0.78 | < 0.05 | 0.39 | 1.56 | 0.195 | 0.39 | ED50 [1, 28]: 146 mg/kg; ED50 [1, 29]: > 30 mg/kg; minimal inhibitory concentration (MIC) [16]: 3.12; minimal inhibitory concentration (MIC) [19]: 0.78; minimal inhibitory concentration (MIC) [23]: 3.12; minimal inhibitory concentration (MIC) [24]: 1.56
2 | CCC1OC(=O)CC(O)C(C)C(OC2OC(C)C(O)C(N(C)C)C2O)C(CC=O)CC(C)C(=O)C=CC(C)=CC1COC(=O)CC(C)C (stereo not drawn) [Compound 22] | 0.25 | 0.125 | 0.25 | 4 | 0.5 | 0.25 | 0.25 | 0.5 | 0.5 | 0.25 | 2 | 10 | – | < 0.05 | 3.12 | < 0.05 | 0.78 | 1.56 | 0.097 | 0.78 | ED50 [1, 28]: > 150 mg/kg; ED50 [1, 29]: 7.5 mg/kg; minimal inhibitory concentration (MIC) [26]: 0.25
3 | CCC(=O)OCC1C=C(C)C=CC(=O)C(C)CC(CC=O)C(OC2OC(C)C(OC(=O)CC)C(N(C)C)C2OC(=O)CC)C(C)C(O)CC(=O)OC1CC (stereo not drawn) [Compound 8, 2',4',23-Tri-O-propionyl-OMT] | 0.5 | 0.25 | 0.25 | 4 | 0.5 | 0.5 | 0.25 | 0.5 | 0.5 | 0.25 | 2 | 60 | 3.12 | 0.048 | 1.56 | 0.048 | 0.78 | 1.56 | 0.195 | 0.39 | minimal inhibitory concentration (MIC) [26]: 0.25; minimal inhibitory concentration (MIC) [16]: 3.12; minimal inhibitory concentration (MIC) [19]: 1.56; minimal inhibitory concentration (MIC) [23]: 6.25; minimal inhibitory concentration (MIC) [24]: 3.12; minimal inhibitory concentration (MIC) [27]: 1.56
4 | CCC1OC(=O)CC(O)C(C)C(OC2OC(C)C(O)C(N(C)C)C2OC(C)=O)C(CC=O)CC(C)C(=O)C=CC(C)=CC1COC(=O)Cc1ccccc1 (stereo not drawn) [Compound 28] | 0.125 | 0.015 | 0.125 | 1 | 0.125 | 0.125 | 0.125 | 0.125 | 0.25 | 0.125 | 1 | 80 | 6.25 | < 0.05 | 0.78 | < 0.05 | 1.56 | 1.56 | < 0.05 | 0.195 | ED50 [1, 28]: 155 mg/kg; ED50 [1, 29]: 6.5 mg/kg; minimal inhibitory concentration (MIC) [26]: 0.125; minimal inhibitory concentration (MIC) [16]: 3.12; minimal inhibitory concentration (MIC) [19]: 0.78; minimal inhibitory concentration (MIC) [23]: 3.12; minimal inhibitory concentration (MIC) [24]: 3.12
5 | CCC(=O)OCC1C=C(C)C=CC(=O)C(C)CC(CC=O)C(OC2OC(C)C(O)C(N(C)C)C2OC(=O)CC)C(C)C(O)CC(=O)OC1CC (stereo not drawn) [Compound 10, 2',23-Di-O-Propionyl-OMT] | 0.5 | 0.125 | 0.25 | 8 | 0.5 | 0.5 | 0.25 | 0.5 | 0.5 | 0.25 | 2 | 10 | 6.25 | 0.097 | 1.56 | 0.097 | 0.78 | 1.56 | 0.195 | 0.39 | minimal inhibitory concentration (MIC) [26]: 0.25; minimal inhibitory concentration (MIC) [16]: 6.25; minimal inhibitory concentration (MIC) [19]: 1.56; minimal inhibitory concentration (MIC) [23]: 6.25; minimal inhibitory concentration (MIC) [24]: 6.25; minimal inhibitory concentration (MIC) [27]: 1.56
6 | CCC1OC(=O)CC(O)C(C)C(OC2OC(C)C(O)C(N(C)C)C2OC(C)=O)C(CC=O)CC(C)C(=O)C=CC(C)=CC1COC(=O)COc1ccccc1 (stereo not drawn) [Compound 35] | 0.125 | 0.03 | 0.125 | 1 | 0.125 | 0.125 | 0.125 | 0.125 | 0.125 | 0.06 | 1 | 10 | 3.12 | 0.097 | 1.56 | < 0.05 | 3.12 | 1.56 | 0.097 | 0.39 | minimal inhibitory concentration (MIC) [26]: 0.125; minimal inhibitory concentration (MIC) [16]: 1.56; minimal inhibitory concentration (MIC) [19]: 1.56; minimal inhibitory concentration (MIC) [23]: 3.12; minimal inhibitory concentration (MIC) [24]: 6.25; minimal inhibitory concentration (MIC) [27]: 3.12
